Measured values from the supplement of paper PMC10307832.

Tests used:
Assay in all cases: relative viability (nuclei count vs DMSO), 5 days (fraction); higher = more cells survive
NCI-H2228 = system: NCI-H2228
How it was run: (§1)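 Cells from lung cancer lines were seeded into 1536-well plates and, one day later, dosed by pin tool. Treatments were either a single drug or a fixed dose of an anchor drug with five library-drug doses (not always all listed) in √10 steps. After 5 days, nuclei were stained in a one-step fixation (final 0.05% Triton X-100, 1% formaldehyde, 1 ug/ml Hoechst) and counted on 4× images, and relative viability is the treated-to-vehicle nuclei ratio, as the median of duplicate plates.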

NCI-H358 = system: NCI-H358
How it was run: as §1

LK-2 = system: LK-2
How it was run: as §1

NCI-H1355 = system: NCI-H1355
How it was run: as §1

NCI-H2087 = system: NCI-H2087
How it was run: as §1

LCLC-97TM1 = system: LCLC-97TM1
How it was run: as §1

NCI-H661 = system: NCI-H661
How it was run: as §1

NCI-H1395 = system: NCI-H1395
How it was run: as §1

CAL-12T = system: CAL-12T
How it was run: as §1

NCI-H322M = system: NCI-H322M
How it was run: as §1

SK-MES-1 = system: SK-MES-1
How it was run: as §1

LC-2-ad = system: LC-2-ad
How it was run: as §1

NCI-H1666 = system: NCI-H1666
How it was run: as §1

NCI-H838 = system: NCI-H838
How it was run: as §1

NCI-H1915 = system: NCI-H1915
How it was run: as §1

NCI-H2085 = system: NCI-H2085
How it was run: as §1

H3255 = system: H3255
How it was run: as §1

NCI-H1792 = system: NCI-H1792
How it was run: as §1

RERF-LC-KJ = system: RERF-LC-KJ
How it was run: as §1

UMC-11 = system: UMC-11
How it was run: as §1

NCI-H1651 = system: NCI-H1651
How it was run: as §1

PC-3 [JPC-3] = system: PC-3 [JPC-3]
How it was run: as §1

A-427 = system: A-427
How it was run: as §1

ABC-1 = system: ABC-1
How it was run: as §1

CCCCCCCCCCCC1=C(O)C(=O)C=C(O)C1=O [Embelin] + O=C(c1cc(Cc2n[nH]c(=O)c3ccccc23)ccc1F)N1CCN(C(=O)C2CC2)CC1 [Olaparib] (partner 8 µM)
relative viability (NCI-H2228; first compound 0.08 µM): 0.474
relative viability (NCI-H2228; first compound 0.8 µM): 0.886
relative viability (NCI-H2228; first compound 2.53 µM): 0.735
relative viability (NCI-H2228; first compound 8 µM): 0.755
relative viability (NCI-H358; first compound 0.08 µM): 0.554
relative viability (NCI-H358; first compound 0.8 µM): 0.658
relative viability (NCI-H358; first compound 2.53 µM): 0.711
relative viability (NCI-H358; first compound 8 µM): 0.623
relative viability (LK-2; first compound 0.08 µM): 0.72
relative viability (LK-2; first compound 0.8 µM): 0.515
relative viability (LK-2; first compound 2.53 µM): 0.686
relative viability (LK-2; first compound 8 µM): 0.69
relative viability (NCI-H1355; first compound 0.08 µM): 0.73
relative viability (NCI-H1355; first compound 0.8 µM): 0.675
relative viability (NCI-H1355; first compound 2.53 µM): 0.869
relative viability (NCI-H1355; first compound 8 µM): 0.733
relative viability (NCI-H2087; first compound 0.08 µM): 0.649
relative viability (NCI-H2087; first compound 0.8 µM): 0.729
relative viability (NCI-H2087; first compound 2.53 µM): 0.688
relative viability (NCI-H2087; first compound 8 µM): 0.607
relative viability (LCLC-97TM1; first compound 0.08 µM): 0.38
relative viability (LCLC-97TM1; first compound 0.8 µM): 0.462
relative viability (LCLC-97TM1; first compound 2.53 µM): 0.445
relative viability (LCLC-97TM1; first compound 8 µM): 0.45
relative viability (NCI-H661; first compound 0.08 µM): 0.771
relative viability (NCI-H661; first compound 0.8 µM): 0.75
relative viability (NCI-H661; first compound 2.53 µM): 0.737
relative viability (NCI-H661; first compound 8 µM): 0.722
relative viability (NCI-H1395; first compound 0.08 µM): 0.539
relative viability (NCI-H1395; first compound 0.8 µM): 0.486
relative viability (NCI-H1395; first compound 2.53 µM): 0.461
relative viability (NCI-H1395; first compound 8 µM): 0.443
relative viability (CAL-12T; first compound 0.08 µM): 0.726
relative viability (CAL-12T; first compound 0.8 µM): 0.727
relative viability (CAL-12T; first compound 2.53 µM): 0.706
relative viability (CAL-12T; first compound 8 µM): 0.677
relative viability (NCI-H322M; first compound 0.08 µM): 0.776
relative viability (NCI-H322M; first compound 0.8 µM): 0.617
relative viability (NCI-H322M; first compound 2.53 µM): 0.75
relative viability (NCI-H322M; first compound 8 µM): 0.774
relative viability (SK-MES-1; first compound 0.08 µM): 0.757
relative viability (SK-MES-1; first compound 0.8 µM): 0.815
relative viability (SK-MES-1; first compound 2.53 µM): 0.802
relative viability (SK-MES-1; first compound 8 µM): 0.214
relative viability (LC-2-ad; first compound 0.08 µM): 0.675
relative viability (LC-2-ad; first compound 0.8 µM): 0.728
relative viability (LC-2-ad; first compound 2.53 µM): 0.678
relative viability (LC-2-ad; first compound 8 µM): 0.727
relative viability (NCI-H1666; first compound 0.08 µM): 0.749
relative viability (NCI-H1666; first compound 0.8 µM): 0.779
relative viability (NCI-H1666; first compound 2.53 µM): 0.827
relative viability (NCI-H1666; first compound 8 µM): 0.713
relative viability (NCI-H838; first compound 0.08 µM): 0.736
relative viability (NCI-H838; first compound 0.8 µM): 0.83
relative viability (NCI-H838; first compound 2.53 µM): 0.883
relative viability (NCI-H838; first compound 8 µM): 0.766
relative viability (NCI-H1915; first compound 0.08 µM): 0.274
relative viability (NCI-H1915; first compound 0.8 µM): 0.254
relative viability (NCI-H1915; first compound 2.53 µM): 0.243
relative viability (NCI-H1915; first compound 8 µM): 0.248
relative viability (NCI-H2085; first compound 0.08 µM): 0.727
relative viability (NCI-H2085; first compound 0.8 µM): 0.73
relative viability (NCI-H2085; first compound 2.53 µM): 0.842
relative viability (NCI-H2085; first compound 8 µM): 0.777
relative viability (H3255; first compound 0.08 µM): 0.561
relative viability (H3255; first compound 0.8 µM): 0.614
relative viability (H3255; first compound 2.53 µM): 0.59
relative viability (H3255; first compound 8 µM): 0.546
relative viability (NCI-H1792; first compound 0.08 µM): 0.507
relative viability (NCI-H1792; first compound 0.8 µM): 0.42
relative viability (NCI-H1792; first compound 2.53 µM): 0.547
relative viability (NCI-H1792; first compound 8 µM): 0.278
relative viability (RERF-LC-KJ; first compound 0.08 µM): 0.846
relative viability (RERF-LC-KJ; first compound 0.8 µM): 0.956
relative viability (RERF-LC-KJ; first compound 2.53 µM): 1.02
relative viability (RERF-LC-KJ; first compound 8 µM): 0.48
relative viability (UMC-11; first compound 0.08 µM): 0.338
relative viability (UMC-11; first compound 0.8 µM): 0.389
relative viability (UMC-11; first compound 2.53 µM): 0.352
relative viability (UMC-11; first compound 8 µM): 0.331
relative viability (NCI-H1651; first compound 0.08 µM): 0.201
relative viability (NCI-H1651; first compound 0.8 µM): 0.166
relative viability (NCI-H1651; first compound 2.53 µM): 0.166
relative viability (NCI-H1651; first compound 8 µM): 0.191
relative viability (PC-3 [JPC-3]; first compound 0.08 µM): 1.12
relative viability (PC-3 [JPC-3]; first compound 0.8 µM): 1.17
relative viability (PC-3 [JPC-3]; first compound 2.53 µM): 1.17
relative viability (PC-3 [JPC-3]; first compound 8 µM): 1.07
relative viability (A-427; first compound 0.08 µM): 0.765
relative viability (A-427; first compound 0.8 µM): 0.872
relative viability (A-427; first compound 2.53 µM): 0.792
relative viability (A-427; first compound 8 µM): 0.524
relative viability (ABC-1; first compound 0.08 µM): 0.847
relative viability (ABC-1; first compound 0.8 µM): 0.988
relative viability (ABC-1; first compound 2.53 µM): 0.805
relative viability (ABC-1; first compound 8 µM): 0.871
